Here are results for twelve molecules from ChEMBL document CHEMBL1148111, “Synthesis and biological evaluation of hyperforin analogues. Part I. Modification of the enolized cyclohexanedione moiety” (J Nat Prod, 2002).

For the test, the target named is Sodium-dependent serotonin transporter (Rattus norvegicus, UniProt P31652). In words: Inhibition of [3H]5HT reuptake at serotonin transporter in rat brain synaptosomes. The class given is subcellular.
Chain of Sodium-dependent serotonin transporter (P31652 whole entry): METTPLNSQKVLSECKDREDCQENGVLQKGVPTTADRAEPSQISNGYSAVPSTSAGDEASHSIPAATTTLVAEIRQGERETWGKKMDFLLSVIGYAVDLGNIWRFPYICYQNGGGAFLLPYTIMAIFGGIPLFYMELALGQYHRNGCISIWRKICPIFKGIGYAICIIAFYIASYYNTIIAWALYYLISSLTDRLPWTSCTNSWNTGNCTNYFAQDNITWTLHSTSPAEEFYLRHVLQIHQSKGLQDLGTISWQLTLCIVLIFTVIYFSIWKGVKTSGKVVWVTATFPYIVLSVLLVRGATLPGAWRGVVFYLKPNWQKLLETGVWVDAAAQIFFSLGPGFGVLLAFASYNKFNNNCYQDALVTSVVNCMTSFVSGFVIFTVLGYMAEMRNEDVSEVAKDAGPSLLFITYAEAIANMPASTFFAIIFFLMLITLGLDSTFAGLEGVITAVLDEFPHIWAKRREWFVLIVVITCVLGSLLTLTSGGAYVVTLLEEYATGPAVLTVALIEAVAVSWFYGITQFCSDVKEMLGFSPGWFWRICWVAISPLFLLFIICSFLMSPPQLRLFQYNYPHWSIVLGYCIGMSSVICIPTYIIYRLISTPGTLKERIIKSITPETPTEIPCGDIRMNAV
Turning to `CC(C)=CCC[C@]1(C)[C@@H](CC=C(C)C)C[C@]2(CC=C(C)C)C(=O)C(CC=C(C)C)=C(O)[C@@]1(C(=O)C(C)C)C2=O`, the IC50 – broadly, the concentration needed to halve the response being measured – was 2.05 µM.
`CC(C)=CCC[C@]1(C)[C@@H](CC=C(C)C)C[C@]2(CC=C(C)C)C(=O)[C@@](O)(CC=C(C)C)C(=O)[C@@]1(C(=O)C(C)C)C2=O`: the IC50 was above 18.1 µM.
With `CC(C)=CCC[C@]1(C)[C@@H](CC=C(C)C)C[C@@]2(CC=C(C)C)C(=O)[C@@]1(C(=O)C(C)C)C(=O)C(CC=C(C)C)=C2OC(=O)c1cc([N+](=O)[O-])cc([N+](=O)[O-])c1` the figure was above 13.7 µM; with `CC(C)=CCC[C@]1(C)[C@@H](CC=C(C)C)C[C@]2(CC=C(C)C)C(=O)[C@]3(CC=C(C)C)O[C@@]2(O)[C@@]1(C(=O)C(C)C)C3=O`, above 18.1 µM.
Under `CC(C)=C/C=C1\C(=O)[C@@]2(CC=C(C)C)C[C@H](CC=C(C)C)[C@@](C)(CCC=C(C)C)[C@](C(=O)C(C)C)(C1=O)C2=O` stands above 18.7 µM; under `COC1=C(CC=C(C)C)C(=O)[C@]2(C(=O)C(C)C)C(=O)[C@]1(CC=C(C)C)C[C@H](CC=C(C)C)[C@@]2(C)CCC=C(C)C`, above 18.2 µM; under `CC(C)=CCC[C@]1(C)[C@@H](CC=C(C)C)C[C@]23C[C@@H](C(C)(C)O)OC2=C(CC=C(C)C)C(=O)[C@]1(C(=O)C(C)C)C3=O`, above 18.1 µM.
Consider `CC(C)=CCC[C@]1(C)[C@@H](CC=C(C)C)C[C@]2(CC=C(C)C)C(=O)[C@](C)(CC=C(C)C)C(=O)[C@]1(C(=O)C(C)C)C2=O` [C-Methylhyperforin], for which the IC50 was above 18.2 µM.
Regarding `C=C(C)[C@@H]1C[C@@]23C[C@H](CC=C(C)C)[C@@](C)(CCC=C(C)C)[C@](C(=O)C(C)C)(C(=O)C(CC=C(C)C)=C2O1)C3=O` [DEHYDROFUROHYPERFORIN], the IC50 was above 18.7 µM.
Under `CC(C)=CCC[C@]1(C)[C@@H](CC=C(C)C)C[C@@]2(CC=C(C)C)C(=O)[C@]1(C(=O)C(C)C)C(=O)C1=C2OC(C)(C)C=C1` [DEHYDROHYPERFORIN] stands above 18.7 µM.
Regarding `CC(=O)OC1=C(CC=C(C)C)C(=O)[C@]2(C(=O)C(C)C)C(=O)[C@]1(CC=C(C)C)C[C@H](CC=C(C)C)[C@@]2(C)CCC=C(C)C` [HYPERFORIN ACETATE], the IC50 is above 17.3 µM.
Under `COc1cc(C(=O)OC2=C(CC=C(C)C)C(=O)[C@@]3(C(=O)C(C)C)C(=O)[C@]2(CC=C(C)C)C[C@H](CC=C(C)C)[C@@]3(C)CCC=C(C)C)cc(OC)c1OC` [HYPERFORINTRIMETHOXYBENZOATE] stands above 13.7 µM.
